Values quoted from earlier work as cited in paper PMC10818380, “Triphenylphosphonium Analogs of Short Peptide Related to Bactenecin 7 and Oncocin 112 as Antimicrobial Agents” (Pharmaceutics, 2024).
Values after ≈ are worked out from the molar mass of the structure shown.

How the values were obtained:
B. subtilis 168 = system: B. subtilis 168; set-up: method as in PMID 33922611; settings: cited from earlier work
B. subtilis CFR = settings: cited from earlier work

In the case of `O=C(N[C@H](CO)[C@H](O)c1ccc([N+](=O)[O-])cc1)C(Cl)Cl` [Chloramphenicol], the MIC (B. subtilis 168) is given as 12 µM (≈ 3.88 µg/mL) and the MIC (B. subtilis CFR) is given as 90 µM (≈ 29.1 µg/mL).
